Earlier results in US20240050388A1 (BioLink Life Sciences, Inc., priority 2022, published 2024).

Conditions: oral

With `CC(=O)[O-].CC(=O)[O-].[Ca+2]` [calcium acetate] as the compound, how does the “In vivo phosphate binding” value read?
The value was “essentially quantitative”.
